Assay results published in patent publication US20140221499A1, “NOVEL RODENT CONTROL AGENTS AND USES THEREOF” (priority 2011, published 2014).

Experiments:
rTAAR8c = biological target: T1, rTAAR8c (Rattus norvegicus, UniProt Q923Y0); experiment: CRE-SEAP reporter gene assay in HEK293 cells transfected with rTAAR8c; format: cell-based; conditions: FIG. 11A, functional with or without 'Rho tag', EC50 ± s.e.m., 4-parameter Hill equation
T1 construct: Full Taar coding regions were cloned into pcDNA3.1; expressed in transfected cells; host or cells: HEK293
T1 sequence (Q923Y0 1-344): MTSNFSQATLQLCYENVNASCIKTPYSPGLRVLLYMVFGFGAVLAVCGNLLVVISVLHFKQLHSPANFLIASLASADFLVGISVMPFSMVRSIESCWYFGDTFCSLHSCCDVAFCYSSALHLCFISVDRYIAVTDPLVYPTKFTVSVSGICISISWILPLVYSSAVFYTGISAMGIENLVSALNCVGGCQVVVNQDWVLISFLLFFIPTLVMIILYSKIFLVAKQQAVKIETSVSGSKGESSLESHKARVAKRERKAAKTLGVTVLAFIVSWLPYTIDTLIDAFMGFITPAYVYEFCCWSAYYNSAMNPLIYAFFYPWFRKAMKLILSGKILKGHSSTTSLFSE
Procedure: (§1) FIG. 11 illustrates the dose-dependent responses of TAARs to amines. HEK293 cells were cotransfected with plasmids encoding CRE-SEAP and rTAARs (a) or mTAARs (b), incubated with concentrations of ligands indicated, and assayed for reporter activity (triplicates±s.d.). EC50 values (±s.e.m, bottom right) were calculated using SigmaPlot (Systat Software) and a 4-parameter Hill equation.
(§2) The following mixes (10 μM of each indicated compounds) were tested for their ability to activate rat TAARs. Mix 1: butylamine, dibutylamine, hexylamine. Mix 2: 2-aminopentane, isoamylamine, isobutylamine, isopropylamine. Mix 3: N,N-dimethylcyclohexylamine, 1-methylindole, tryptamine, phenylethylamine. Mix 4: indole, 1-methylpyrrolidine, 1-methylpiperidine, pyrrolidine. […]
(§3) Full Taar coding regions were cloned into pcDNA3.1-(Invitrogen) with or without a 5′ DNA extension of 69 bp encoding the first 20 amino acids of bovine rhodopsin followed by a cloning linker ([…]). […] Fluorescence was measured on an EnVision plate reader (Perkin Elmer) and SEAP activity graphed as relative fluorescence of a phosphatase substrate.
(§4) Here, we set out to identify agonists for additional mouse and rat TAARs. […] Transfected cells were incubated with test chemicals, and phosphatase activity was quantified with a fluorescent substrate as a reporter for TAAR activation. […]

rTAAR9 = biological target: T2, rTAAR9 (Rattus norvegicus, UniProt Q923Y6); experiment: CRE-SEAP reporter gene assay in HEK293 cells transfected with rTAAR9; format: cell-based; conditions: FIG. 11A, functional with or without 'Rho tag', EC50 ± s.e.m., 4-parameter Hill equation
T2 construct: Full Taar coding regions were cloned into pcDNA3.1; expressed in transfected cells; host or cells: HEK293
T2 sequence (Q923Y6 1-338): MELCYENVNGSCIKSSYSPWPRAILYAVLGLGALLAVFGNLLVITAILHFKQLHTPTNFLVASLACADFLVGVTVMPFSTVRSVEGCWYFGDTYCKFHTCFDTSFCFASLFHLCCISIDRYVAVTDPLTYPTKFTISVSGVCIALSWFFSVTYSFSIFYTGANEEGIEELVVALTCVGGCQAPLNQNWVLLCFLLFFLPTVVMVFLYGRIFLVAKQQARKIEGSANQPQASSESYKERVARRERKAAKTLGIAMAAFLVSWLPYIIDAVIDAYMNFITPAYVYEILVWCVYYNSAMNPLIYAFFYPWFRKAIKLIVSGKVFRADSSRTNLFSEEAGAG
Procedure: as §1, §2, §3, §4

mTAAR7b = biological target: T3, mTAAR7b (Mus musculus, UniProt Q5QD11); experiment: CRE-SEAP reporter gene assay in HEK293 cells transfected with mTAAR7b; format: cell-based; set-up: Full Taar coding regions were cloned into pcDNA3.1; expressed in transfected cells; host or cells: HEK293; conditions: FIG. 11B, functional with or without 'Rho tag', EC50 ± s.e.m., 4-parameter Hill equation
T3 sequence (Q5QD11 1-358): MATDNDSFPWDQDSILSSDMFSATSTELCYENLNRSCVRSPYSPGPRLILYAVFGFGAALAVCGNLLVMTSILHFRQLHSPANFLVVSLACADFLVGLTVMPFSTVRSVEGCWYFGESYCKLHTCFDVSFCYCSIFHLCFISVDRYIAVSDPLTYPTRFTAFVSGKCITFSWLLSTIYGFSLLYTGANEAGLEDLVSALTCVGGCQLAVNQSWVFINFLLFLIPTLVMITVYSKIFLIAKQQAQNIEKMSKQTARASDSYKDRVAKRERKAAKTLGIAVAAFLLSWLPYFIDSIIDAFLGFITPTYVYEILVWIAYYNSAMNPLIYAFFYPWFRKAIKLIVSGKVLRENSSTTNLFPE
Procedure: as §1
Chemicals tested for the ability to activate mouse TAARs include those previously described (Liberles, S. D., and Buck, L. B. (2006) A second class of chemosensory receptors in the olfactory epithelium, Nature 442, 645-650), as well as the following mixes (5 μM of each indicated compounds). Mix 1: N,N-dimethyl-cyclohexylamine, N,N-dimethyl-phenylethylamine, creatinine, taurine. […]
as §3, §4

rTAAR7h = biological target: T4, rTAAR7h (Rattus norvegicus, UniProt Q923Y4); experiment: CRE-SEAP reporter gene assay in HEK293 cells transfected with rTAAR7h; format: cell-based; set-up: Full Taar coding regions were cloned into pcDNA3.1; expressed in transfected cells; host or cells: HEK293; conditions: FIG. 11A, functional with or without 'Rho tag', EC50 ± s.e.m., 4-parameter Hill equation
T4 sequence (Q923Y4 1-358): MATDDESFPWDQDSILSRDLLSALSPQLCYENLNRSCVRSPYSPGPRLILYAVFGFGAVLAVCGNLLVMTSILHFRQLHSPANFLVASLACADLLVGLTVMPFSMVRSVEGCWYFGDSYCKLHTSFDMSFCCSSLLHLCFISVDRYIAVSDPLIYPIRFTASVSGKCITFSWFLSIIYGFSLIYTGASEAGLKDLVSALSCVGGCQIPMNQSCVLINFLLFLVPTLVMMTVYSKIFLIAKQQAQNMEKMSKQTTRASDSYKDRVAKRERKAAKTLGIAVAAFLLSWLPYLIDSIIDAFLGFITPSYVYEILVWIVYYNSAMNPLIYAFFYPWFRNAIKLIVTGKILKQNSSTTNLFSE
Procedure: as §1, §2, §3, §4

TAAR5 = biological target: T5, TAAR5 (Mus musculus, UniProt Q5QD14); conditions: cited from earlier work
T5 sequence (Q5QD14 1-337): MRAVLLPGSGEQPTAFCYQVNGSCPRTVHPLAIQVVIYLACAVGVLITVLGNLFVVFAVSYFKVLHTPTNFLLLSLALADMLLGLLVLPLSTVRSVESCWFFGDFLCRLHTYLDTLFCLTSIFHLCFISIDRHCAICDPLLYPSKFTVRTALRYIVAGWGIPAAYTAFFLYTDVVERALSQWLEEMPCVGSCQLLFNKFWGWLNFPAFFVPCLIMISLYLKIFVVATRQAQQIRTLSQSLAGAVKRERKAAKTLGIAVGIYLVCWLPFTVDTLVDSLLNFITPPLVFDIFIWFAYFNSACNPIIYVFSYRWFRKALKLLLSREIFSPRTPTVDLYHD

## CN1CCCCC1 [1-methylpiperidine]
rTAAR8c
  EC50: 0.08 ± 0.02 µM
rTAAR9
  EC50: 18.3 ± 0.4 µM

## CCCCN(C)C [N,N-DIMETHYLBUTYLAMINE, N,N-dimethylbutylamine]
mTAAR7b
  EC50: 20.1 ± 8.9 µM

## CCCCCCCCN(C)C [N,N-DIMETHYLOCTYLAMINE, N,N-dimethyloctylamine]
rTAAR7h
  EC50: 12.7 ± 6.2 µM

## CN(C)C [Trimethylamine, trimethylamine]
TAAR5
  TAAR5 activation: activates TAAR5
